In patent US20210114983A1, “Cathepsin C inhibitors” (National Institute of Biological Sciences, Beijing, priority 2018, published 2021):

Assays:
[1] = tested on: CatG; experiment: In vivo study, CatG activity in rat bone marrow lysates; conditions: dose dependent
Procedure: (§1) C57BL/6 mice (20-25 g) were randomly divided into 4 groups (n=10) and kept at 5 animals per cage. Compound 31 was administered orally twice daily at 6.7, 20, 60 mg kg-1 day-1 for 6 days. The matched vehicle controls (0.5% Methocel™, 0.1% Tween 80 in 100 mM citrate buffer, pH 3) were also administered twice daily for 6 days. Mice were weighed and the dose adjusted accordingly on each day. Sprague Dawley (280-300 g) were conducted by intraperitoneal injection twice daily at 1, 5, 20 mg kg-1 day-1 for 8 days. Blood was sampled through eye puncture at 14 h intervals after the end of the administration. Then mice were terminated and bone marrow cells were immediately extracted from femurs and tibias using ice cold RPMI 1640 medium. Blood cells and bone marrow cells were lysed according to the protocols previously described 8 with some modifications. […]
(§2) The analysis was performed as previously described. […] Synthetic peptide substrates (Gly-Phe-AFC(SMBiochemicals) for CatC, methoxysuccinyl-Ala-Ala-Pro-Val-AMC (Sigma) for NE, minobenzoyl-Val-Ala-Asp-Cys-Ala-Asp-Gin-ethylenediamine 2,4-dinitrophenyl (Peptide Synthetics) for Pr3, and N-succinyl-Ala-Ala-Pro-Phe-ONA (Sigma) for CatG) were added before plates were read at fluorescence or absorbance. Assay kinetics was monitored for up to 90 min. Data were analyzed using GraphPad Prism (GraphPad Software, Inc., San Diego, Calif., USA).

[2] = tested on: Pr3; experiment: In vivo study, Pr3 activity in mice bone marrow and blood lysates; conditions: dose dependent
Procedure: as §1, §2

[3] = tested on: CatG; experiment: In vivo study, CatG activity in mice bone marrow and blood lysates; conditions: dose dependent
Procedure: as §1, §2

[4] = tested on: acute pancreatitis; experiment: Caerulein-induced acute pancreatitis; assay type: in vivo, C57BL/6 mice; conditions: orally twice daily at 20 mg/kg for 6 days
Procedure: Induction of Pancreatitis. The acute pancreatitis was induced by hourly intraperitoneal injections of caerulein (50 μg/kg/body weight) for up to 8 h, 36 C57BL/6 mice (20-25 g) were randomly divided into 4 groups (n=5). Compound 28 were administered orally twice daily at 20 mg/kg for 6 days. The matched vehicle controls (0.5% Methocel™, 0.1% Tween 80 in 100 mM citrate buffer, pH 3) were also administered twice daily for 6 days. On the 6th day, mice were induced pancreatitis after compound administration and after the last caerulein injection, mice were administered compound. The sham-treated group was performed with the same as vehicle controls except that saline was administered instead of caerulein. Mice were killed at 1 h after the last caerulein injection. Tissue was harvested immediately after sacrificing the animals. A portion of pancreas samples were frozen in liquid nitrogen for preparation of homogenate. For histology, pancreas was fixed in 4.5% formalin for paraffin embedding and stained with hematoxylin and eosin. Serum samples were prepared and stored at −20 C. […] Compound 28 were administered orally twice daily at 20 mg/kg. The activity inhibition data of the compound-treated groups are shown as the percentage activity of a sham mean (set to 100% activity). Values are means±SEM. […]

[5] = target: T1, CatC (Rattus norvegicus, UniProt P80067); experiment: In vivo study, CatC activity in rat bone marrow lysates; conditions: dose dependent
T1 construct: bone marrow cells were immediately extracted from femurs and tibias; from tissue; host or cells: Sprague Dawley rat bone marrow cell lysate
Procedure: as §1, §2

[6] = target: rhCatC (Cathepsin C) (Homo sapiens, UniProt P53634); experiment: In Vitro CatC Enzyme Assay; assay type: biochemical; conditions: read-out: Cat C Enzy (Cathepsin C inhibitory activity, IC50)
Procedure: In Vitro CatC Enzyme Assay
The CatC enzyme assay was performed in black 384-well plate. Firstly, rhCatC (440 nM) was activated by rhCatL (300 nM) in activation buffer (25 mM MES, 5 mM DTT, pH 6.0) at room temperature for 2 h and then activated rhCatC was diluted to 4.4 nM in assay buffer (25 mM MES, 50 mM NaCl, 5 mM DTT, 0.01% (v/v) Triton X100, pH 6.0), 14 μL activated rhCatC and 1 μL compound in 10% DMSO or 10% DMSO were incubated at room temperature for 3 h, and 5 μL substrate (Gly-Phe-AFC) was added to final concentration of 100 μM. After 60 min reaction, the product of the reaction was measured in the Enspire plate reader using Ex λ400 nm and Em λ505 nm for AFC. A standard irreversible CatC inhibitor 10 by AstraZeneca (J. Med. Chem. 2014, 57, 2357-2367) was used as an inhibitor control in the assay.

[7] = tested on: NE; experiment: In vivo study, NE activity in mice bone marrow and blood lysates; conditions: dose dependent
Procedure: as §1, §2

[8] = target: T2, CatC (Mus musculus, UniProt P97821); experiment: In vivo study, CatC activity in mice bone marrow and blood lysates; conditions: dose dependent
T2 construct: Blood cells and bone marrow cells were lysed; from tissue; host or cells: C57BL/6 mouse bone marrow and blood cell lysates
Procedure: as §1, §2

[9] = tested on: NE; experiment: In vivo study, NE activity in rat bone marrow lysates; conditions: dose dependent
Procedure: as §1, §2

T2 sequence (P97821 25-134 limits assumed): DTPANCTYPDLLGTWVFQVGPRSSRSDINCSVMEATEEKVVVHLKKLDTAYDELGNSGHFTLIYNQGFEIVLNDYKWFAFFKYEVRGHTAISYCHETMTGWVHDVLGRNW
T2 sequence (P97821 231-393 limits assumed): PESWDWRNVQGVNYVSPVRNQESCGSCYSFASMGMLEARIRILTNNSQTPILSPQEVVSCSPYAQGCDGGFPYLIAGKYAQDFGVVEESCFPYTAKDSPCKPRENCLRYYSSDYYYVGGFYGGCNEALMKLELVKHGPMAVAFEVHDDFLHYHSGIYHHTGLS
T2 sequence (P97821 394-462 limits assumed): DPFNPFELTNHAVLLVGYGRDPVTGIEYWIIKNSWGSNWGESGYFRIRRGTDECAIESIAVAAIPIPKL
Chain of rhCatC (Cathepsin C) (P53634 25-134 limits assumed): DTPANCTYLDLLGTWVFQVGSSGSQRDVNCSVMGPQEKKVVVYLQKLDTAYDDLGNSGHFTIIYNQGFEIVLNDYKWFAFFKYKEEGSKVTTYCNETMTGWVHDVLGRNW
Chain of rhCatC (Cathepsin C) (P53634 231-394 limits assumed): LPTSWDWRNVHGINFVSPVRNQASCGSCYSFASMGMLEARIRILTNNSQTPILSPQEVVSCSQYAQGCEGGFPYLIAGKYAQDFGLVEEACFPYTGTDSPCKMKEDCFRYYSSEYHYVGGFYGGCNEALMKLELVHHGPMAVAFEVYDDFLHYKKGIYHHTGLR
Chain of rhCatC (Cathepsin C) (P53634 395-463 limits assumed): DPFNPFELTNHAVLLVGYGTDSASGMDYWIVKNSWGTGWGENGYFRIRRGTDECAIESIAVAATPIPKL
T1 sequence (P80067 25-134 limits assumed): as the sequence (P97821 25-134 limits assumed) above, with S23H, S24P, D27H, A35P, V42I, L54V, H59Y, R86K, H88S, T89R counted along it
T1 sequence (P80067 230-393 limits assumed): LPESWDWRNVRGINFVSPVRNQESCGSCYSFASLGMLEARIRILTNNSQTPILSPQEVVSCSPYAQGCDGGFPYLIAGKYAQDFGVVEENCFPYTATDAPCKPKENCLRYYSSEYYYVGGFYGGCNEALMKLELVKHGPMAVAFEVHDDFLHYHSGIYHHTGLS
T1 sequence (P80067 394-462 limits assumed): as the sequence (P97821 394-462 limits assumed) above, with R20K, I26L, E27D, I31V, N38Q, V61M counted along it

SMILES: C=CC(=O)Nc1cc(Oc2nc(Nc3ccc(N4CCN(C)CC4)cc3OC)ccc2N2CCCCC2)ccc1C [Compound 28, N-(5-((6-((2-methoxy-4-(4-methylpiperazin-1-yl)phenyl)amino)-3-(piperidin-1-yl)pyridin-2-yl)oxy)-2-methylphenyl)acrylamide]
- activation of CatG [1]: inhibited the activation
- activation of Pr3 ([2]; mice blood): inhibited the activation
- activation of Pr3 ([2]; mice bone marrow): inhibited the activation
- activation of CatG ([3]; mice blood): inhibited the activation
- activation of CatG ([3]; mice bone marrow): inhibited the activation
- severity of acute pancreatitis [4]: reduced the severity of acute pancreatitis
- activation of CatC [5]: inhibited the activation
- IC50 [6]: 3 to 300 nM
- activation of NE ([7]; mice blood): inhibited the activation
- activation of NE ([7]; mice bone marrow): inhibited the activation
- activation of CatC ([8]; mice blood): inhibited the activation
- activation of CatC ([8]; mice bone marrow): inhibited the activation
- activation of NE [9]: inhibited the activation
